The results in this text go back to US20240058318A1, “DEGRADING PKCB1 TO TREAT CANCER” (Mayo Foundation for Medical Education and Research, priority 2020, published 2024).

pIC50: −log10 of the molar value. “Also recorded” adds a separate entry of the source.

The subject of data set [1] is Rb-proficient (MDAMB231) and Rb-deficient (BT549 and MDAMB436) TNBC cells. Briefly: CV proliferation assay, TNBC cells (statements across lines). It is filed as cell-based. The conditions noted are these: for inhibition of growth of TNBC cells: MDAMB231, BT549, MDAMB436, CV assay; for induction of apoptosis: MDAMB231 and BT549 cells (FIG. 4A and TABLE 1). On the procedure: (§1) Cell proliferation rates were determined using crystal violet assays. One thousand cells per well were plated in 96 well tissue culture plates and treated the following day with a bifunctional compound or control for 7 days in replicates of 8. Cells were fixed with 25% glutaraldehyde for 10 minutes with shaking, washed 5 times with distilled water, stained with a 1% crystal violet solution (solubilized in 25% methanol) for 10 minutes, washed again 5 times and allowed to dry. De-staining was performed using […] sodium citrate in 50% ethanol followed by quantification using a 96 well spectrophotometer set at an absorbance of 550 nm.
as §1, with “using CV” for “using crystal violet”, “assays. Two” for “assays. One”, “thousand (2000) or 4000” for “thousand”, “for 6” for “for 7”, “of 6.” for “of 8.”

The subject of a further data set is MCF7AC1 cells. The data set can be described thus: CV proliferation assay, ER+ MCF7AC1. It counts as cell-based. Here is the method:
as §1
as §1, with “using CV” for “using crystal violet”, “assays. Two” for “assays. One”, “thousand (2000) or 4000” for “thousand”, “for 6” for “for 7”, “of 6.” for “of 8.”

Data set [2] deals with PKCβ1, E2F1, and Cyclin D1. Briefly: Western blot, BT549 and MDAMB436 cells (Example 6). It counts as cell-based. Conditions: 1 μM, 24, 48, 72 hours. Here is the method: TNBC BT549 and MDAMB436 cells were cultured in phenol-red free DMEM/F12 medium supplemented with 10% fetal bovine serum (FBS) and 1% AA. On day 1, cells were plated at a density of 2×10^5 BT549 cells or 4×10^5 MDAMB436 cells in a 6-well plate (two wells per treatment). The next day, cells were treated with DMSO, 1 μM Pr-9 (positive control), 1 μM Pr-9-1, 1 μM Pr-9-4, or 1 μM ENDX (negative control). Radioimmunoprecipitation Assay (RIPA) protein lysates were collected 24, 48, and 72 hours after treatment.
For western blot analysis, […] of protein lysates were run on Criterion precast 10% Bis-Tris gel, transferred to PVDF membrane, incubated in TBST-5% milk for one hour, and then incubated overnight with PKCβ1 (SC8049, mouse, 1:200), E2F1 (SC251, mouse, 1:250), Cyclin D1 (CS2978, rabbit, 1:1000), or Actin (Sigma A2228, mouse, 1:10,000 or CS8457, rabbit, 1:2000) primary antibodies in TBST-5% BSA solution. Membranes were washed in TBS-T, incubated for one-hour in HRP-linked anti-rabbit or anti-mouse secondary antibodies in TBST-5% milk, and washed in TBS-T. Bands were developed using west-pico or west-femto chemiluminescent substrate reagents.

For another data set, the system named is MDAMB231 cells. Briefly: Crystal violet (CV) proliferation assay, MDAMB231. It counts as cell-based. The conditions noted are these: MDAMB231 (PKCß1 high, Rb positive), 2000 cells. Here is the method:
(§2) Cell proliferation rates were determined using crystal violet assays. […] Cells were fixed with 25% glutaraldehyde for 10 minutes with shaking, washed 5 times with distilled water, stained with a 1% crystal violet solution (solubilized in 25% methanol) for 10 minutes, washed again 5 times and allowed to dry. De-staining was performed using […] sodium citrate in 50% ethanol followed by quantification using a 96 well spectrophotometer set at an absorbance of 550 nm.

For another data set, the system named is BT549 cells. The data set can be described thus: Crystal violet (CV) proliferation assay, BT549. It is filed as cell-based. Conditions: BT549 (PKCß1 high, Rb negative), 2000 cells. Here is the method:
as §2

For the next data set, the system named is MDAMB436 cells. The data set can be described thus: Crystal violet (CV) proliferation assay, MDAMB436. It counts as cell-based. The conditions noted are these: MDAMB436 (PKCß1 low, Rb negative), 2000 cells. Here is the method:
as §2

For the next data set, the system named is MDAH-2774 cells. The data set can be described thus: CV proliferation assay, MDAH-2774 ovarian cancer cells. It is filed as cell-based. Conditions: MDAH-2774 (PKCß1 high), 1000 cells/well. On the procedure:
as §1
(§3) Based on the potent anti-proliferative activity of ENDX-PROTACs TC-Pr-006, TC-Pr-007, TC-Pr -008, and TC-Pr -009 in TNBC cells, the efficacy of these compounds for inhibiting the growth of ovarian cancer cells was tested. This analysis utilized KURAMOCHI cells, which represent the high-grade serous subtype (the most malignant form that accounts for 70% of all ovarian cancers and associates with poor clinical outcome) and MDAH-2774 cells, which represent endometrioid ovarian cancer and accounts for 20% of all ovarian cancer. PKCβ1 was confirmed to be expressed in both ovarian cancer cell line models, with MDAH-2774 cells expressing higher amounts of PKCβ1 compared to KURAMOCHI cells (FIG. 5A).

The test system of another data set is KURAMOCHI cells. Briefly: CV proliferation assay, KURAMOCHI ovarian cancer cells. The conditions noted are these: KURAMOSHI (PKCß1 low), 1000 cells/well. It is filed as cell-based. On the procedure:
as §1, §3

The next data set addresses T1, PKCβ1 (Homo sapiens, UniProt P05771).
T1 construct: western blots showing expression of PKCβ1 in MCF7AC1 cells treated with 1 μM concentration of the ENDX-PROTACs or ENDX; endogenous in cells; host or cells: MCF7AC1 (ER+ breast cancer cells)
Briefly: Western blot, PKCβ1 expression in MCF7AC1 cells. It is filed as cell-based. The conditions noted are these: 1 μM, within 72 hours, drugs replenished every 24 hours. On the procedure:
For western blotting analysis, cells were treated with vehicle (DMSO) or 1 μM of the indicated ENDX-PROTAC's or parent drug ENDX for 24, 48 and 72 hours with the drugs replenished every 24 hours. 25 μg of protein lysates were run on 10% Bis-Tris XT Criterion precast SDS-PAGE gels and transferred on to PVDF membrane. Following blocking with TB ST-5% milk, the membranes were probed with primary antibodies (1:500 — 1:2000 dilutions) for PKCβ1 (Abcam #136917), ERα (SC #8002), E2F1 (SC #251) and Actin (CS#8457) in TBST-5% BSA and secondary antibodies (1:2000 dilution) in TBST-5% milk. Membranes were developed using chemiluminescent WestPico or WestFemto detection solutions on the Li-Cor Imaging system.

A short description of data set [3]: Pharmacokinetics in mice, plasma by UPLC-MS/MS. It is filed as in vivo, female CD1 mice. The conditions noted are these: for Concentration ENDX PROTAC 9: PO 10 mg/kg, mouse plasma, individual samples. On the procedure:
ENDX PROTAC 7 and PROTAC 9 pharmacokinetics were characterized in female CD1 mice. Blood samples were collected from mice anesthetized under isoflurane via retro-orbital eye bleed into tubes containing EDTA and immediately chilled on ice. NaF was added to the EDTA collection tubes to help stabilize the drug in whole blood for the second IV and IP studies with ENDX PROTAC 9, and for the IV and oral studies with PROTAC 7. Plasma and red blood cells were separated immediately by centrifugation in a refrigerated centrifuge at 4° C. The plasma was transferred to a separate tube and immediately frozen at −20° C.
For IV dosing, ENDX PROTAC 9 was dissolved in 10% DMSO, 10% PEG 400, and 80% normal saline for a final concentration of 0.2 mg/mL ENDX PROTAC 9 for the 1 mg/kg IV doses. ENDX PROAC 7 was dissolved in 15% DMSO, 9.44% PEG400, and […] normal saline for a final concentration of 0.19 mg/mL for the 1 mg/kg IV doses. Blood samples (3 mice per time-point) were collected 5 minutes, 15 minutes, 0.5 hour, 1 hour, 2 hours, 4 hours, 8 hours, and 24 hours after administration of the ENDX PROTAC. A second IV study was performed for ENDX PROTAC 9 in which blood samples (3 mice per time-point) were collected 5 minutes, 15 minutes, 1 hour, and 2 hours after administration of ENDX PROTAC 9. For oral dosing, ENDX PROTAC 9 (10 mg/kg) and ENDX PROTAC 7 (10 mg/kg) were suspended in 1 mM ascorbic acid:PEG400, 1:1 v/v for a final concentration of 1.0 mg/mL ENDX PROTAC. Blood samples (three mice per time-point) were collected 15 minutes, 0.5 hour, 1 hour, 2 hours, 4 hours, 6 hours, 8 hours, and 24 hours after administering the ENDX PROTAC. For LP. dosing, ENDX PROTAC 9 (4 mg/kg) was prepared in 1 mM ascorbic acid:PEG400, 1:1 v/v for a final concentration of 0.4 mg/mL ENDX PROTAC 9. Blood samples (three mice per time-point) were collected 15 minutes, 0.5 hour, 1 hour, 2 hours, 4 hours, 6 hours, 8 hours, and 24 hours after administration. Plasma concentrations of ENDX PROTAC 7 and 9 were measured using UPLC-MS/MS.

T1 sequence (P05771 whole entry): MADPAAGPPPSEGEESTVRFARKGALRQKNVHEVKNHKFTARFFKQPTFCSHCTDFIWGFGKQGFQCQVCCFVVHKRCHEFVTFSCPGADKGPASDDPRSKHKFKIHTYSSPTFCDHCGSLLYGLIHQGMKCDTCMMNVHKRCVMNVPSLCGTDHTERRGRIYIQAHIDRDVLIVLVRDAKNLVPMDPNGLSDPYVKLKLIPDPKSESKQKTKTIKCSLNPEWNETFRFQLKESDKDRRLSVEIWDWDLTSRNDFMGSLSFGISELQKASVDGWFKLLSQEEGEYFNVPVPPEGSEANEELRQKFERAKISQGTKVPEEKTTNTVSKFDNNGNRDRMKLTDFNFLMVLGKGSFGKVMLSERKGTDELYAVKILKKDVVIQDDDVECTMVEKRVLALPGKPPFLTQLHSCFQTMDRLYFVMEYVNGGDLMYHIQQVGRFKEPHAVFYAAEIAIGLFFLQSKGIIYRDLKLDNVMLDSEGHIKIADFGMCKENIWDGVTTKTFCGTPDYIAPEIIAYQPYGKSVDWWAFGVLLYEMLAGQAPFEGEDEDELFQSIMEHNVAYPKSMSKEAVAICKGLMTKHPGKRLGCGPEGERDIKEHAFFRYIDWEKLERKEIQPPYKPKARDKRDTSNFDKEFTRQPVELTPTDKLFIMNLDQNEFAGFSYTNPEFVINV

On to `CC/C(=C(\c1ccc(O)cc1)c1ccc(OCCN(C)C(=O)COCCOCCN(C)C(=O)Cc2ccc3c(c2)CN(C2CCC(=O)NC2=O)C3=O)cc1)c1ccccc1` (centres unmarked) [Pr-9-1], for which the “inhibition of growth of TNBC cells” value in data set [1] was “did not inhibit growth of MDAMB231, BT549, or MDAMB436 TNBC cells as effectively”. For the same compound, the “inhibition of growth of ER+ MCF7AC1 cells” value with MCF7AC1 cells is “inhibited growth of ER+ MCF7AC1 cells”. Besides, the “impact on PKCβ1, E2F1, and Cyclin D1 protein expression” value in data set [2] is “lack of impact”.

Turning to `CC/C(=C(\c1ccc(O)cc1)c1ccc(OCCN(C)C(=O)COCCO[C@@H]2CCN(C(=O)Cc3ccc4c(c3)CN(C3CCC(=O)NC3=O)C4=O)C2)cc1)c1ccccc1` (some centres unmarked) [Pr-9-4], in data set [1], the “inhibition of growth of TNBC cells” value is given as “did not inhibit growth of MDAMB231, BT549, or MDAMB436 TNBC cells as effectively”. In addition, the “inhibition of growth of ER+ MCF7AC1 cells” value with MCF7AC1 cells is reported as “inhibited growth of ER+ MCF7AC1 cells”. For the same compound, the “impact on PKCβ1, E2F1, and Cyclin D1 protein expression” value in [2] is given as “lack of impact”.

For `CC/C(=C(\c1ccc(O)cc1)c1ccc(OCCN(C)C(=O)COCCNC(=O)c2cccc3c2CN([C@H]2CCC(=O)NC2=O)C3=O)cc1)c1ccccc1` [TC-Pr-001], the “IC50 (result in words)” value in the data set with MDAMB231 cells and in the data set with BT549 cells was “No major killing” each time. For the same compound, the negative logarithm of the IC50 (pIC50) in the data set with MDAMB436 cells is 5.00.

Consider `CC/C(=C(\c1ccc(O)cc1)c1ccc(OCCN(C)C(=O)CCOCCNC(=O)c2cccc3c2CN([C@H]2CCC(=O)NC2=O)C3=O)cc1)c1ccccc1` [TC-Pr-002], for which the “IC50 (result in words)” value with MDAMB231 cells, in the data set with BT549 cells and with MDAMB436 cells was “No major killing” each time.

With `CC/C(=C(\c1ccc(O)cc1)c1ccc(OCCN(C)C(=O)COCCOCCNC(=O)c2cccc3c2CN([C@H]2CCC(=O)NC2=O)C3=O)cc1)c1ccccc1` [TC-Pr-003], the “Approximate IC50 (result in words)” value in the data set with MDAH-2774 cells and in the data set with KURAMOCHI cells was “No killing” in each case. The “IC50 (result in words)” value in the data set on MDAMB231 cells, in the data set with BT549 cells and in the data set with MDAMB436 cells was “No major killing” throughout.

`CC/C(=C(\c1ccc(O)cc1)c1ccc(OCCN(C)C(=O)COCCNC(=O)c2ccc3c(c2)CN([C@H]2CCC(=O)NC2=O)C3=O)cc1)c1ccccc1` [TC-Pr-004]: the “IC50 (result in words)” value in the data set on MDAMB231 cells was “No major killing”; in the data set with BT549 cells, “No major killing,”. Besides, the pIC50 with MDAMB436 cells was 5.00.

Regarding `CC/C(=C(\c1ccc(O)cc1)c1ccc(OCCN(C)C(=O)CCOCCNC(=O)c2ccc3c(c2)CN([C@H]2CCC(=O)NC2=O)C3=O)cc1)c1ccccc1` [TC-Pr-005], the negative logarithm of the IC50 (pIC50) with MDAMB231 cells is less than 5.00; in the data set on BT549 cells, less than 5.00; in the data set with MDAMB436 cells, 6.00 to 7.00.

Consider `CC/C(=C(\c1ccc(O)cc1)c1ccc(OCCN(C)C(=O)CCOCCNC(=O)Cc2ccc3c(c2)CN([C@H]2CCC(=O)NC2=O)C3=O)cc1)c1ccccc1` [TC-Pr-008], for which the negative-log IC50 (pIC50) is 6.88 in the data set with MDAMB231 cells, 6.65 in the data set on BT549 cells and 7.13 with MDAMB436 cells. The induction of apoptosis result in data set [1] is reported as “induced apoptosis”. Besides, the PKCβ1 polypeptide degradation entry at PKCβ1 is “rapidly degraded PKCβ1 polypeptides”.

`CCC(=C(c1ccc(O)cc1)c1ccc(OCCN(C)C(=O)COCCOCCNC(=O)Cc2ccc3c(c2)CN(C2CCC(=O)NC2=O)C3=O)cc1)c1ccccc1` (centres unmarked) [TC-Pr-009, 2-[2-(2-2-[2-(2,6-dioxopiperidin-3-yl)-1-oxo-2,3-dihydro-1H-isoindo1-5-yl]acetamidoethoxy)ethoxy]-N-(2-4-[1-(4-hydroxyphenyl)-2-phenylbut-1-en-1-yl]phenoxyethyl)-N-methylacetamide]: the induction of apoptosis result in data set [1] was “induced apoptosis”. For the same compound, in data set [2], the PKCβ1 protein levels result was “altered to varying extent”. In addition, the “protein levels of E2F1 and Cyclin D1” value in data set [2] (listed as Pr-9) is listed as “clearly reduced by 48 hours; also recorded: reduced protein levels”. Besides, at PKCβ1, the PKCβ1 polypeptide degradation result is recorded as “rapidly degraded PKCβ1 polypeptides”. Moreover, the “Concentration ENDX PROTAC 9” value in [3] (120 minutes, listed as ENDX PROTAC 9, 10 mg/kg) is “BLD*”; in data set [3] (360 minutes, listed as ENDX PROTAC 9, 10 mg/kg), “BLD”; in [3] (480 minutes, listed as ENDX PROTAC 9, 10 mg/kg), “BLD”; in [3] (1440 minutes), “BLD”. In addition, in data set [3] (mice, I.V. 1 mg/kg, second study, NaF added to EDTA tubes), the “time of peak plasma concentration” value worked out at 5 min. Besides, in data set [3] (mouse whole blood, comparison of IV studies with and without NaF), the “stability in whole blood” value is listed as “unstable in whole blood”.
